Measured values taken from patent US4264590A, “Antibacterial peptide” (Abbott Laboratories, priority 1980, dated 1981).
Values joined by “and” are separate entries in the source; they are usually repeats but may differ in a detail not shown here. Identical values can stand only once.

Tests used:
S. aureus (Smith) = test: mouse protection test, CD50 (Table III); format: in vivo; conditions: for F.I.C. Index / CD50 (mg/kg) Combination: S. aureus (Smith) in mice, dipeptide:D-cycloserine 10:1; for CD50 (mg/kg) Combination: amount of peptide only listed, D-cycloserine is 10% of it; for CD50 (mg/kg) Peptide: mice infected i.p. with S. aureus (Smith), dosed subcutaneously, 7 days survival, peptide alone
Description: (§1) Charles River mice, weighing approximately 20 g. each, are infected intraperitoneally with 10-100 times the LD of the infecting organism. At predetermined intervals post-infection, e.g., 1 and 5 hours, mice are dosed subcutaneously with graded doses of the halogenated peptide, antibiotic and combination thereof. The number of mice surviving each treatment for 7 days post-infection is observed and the CD50 is calculated. The fractional inhibitory concentration (F.I.C.) for each combination is calculated in the usual manner.
(§2) In this table, the following infecting microorganisms were used:
(§3) The infecting organisms are listed by the above code; the compounds are listed by their Example number. In all instances, the dipeptide and D-cycloserine were tested at a ratio of 10:1. The CD50 combination column lists only the amount of peptide present; the D-cycloserine amount is 10% of the listed amount.

E. coli (Juhl) [1] = test: two-fold agar dilution assay, M.I.C.; format: cell-based; conditions: for MIC: Escherichia coli, substance alone, agar dilution, read-out: minimum inhibitory concentration (M.I.C.)
Description: (§4) In a two-fold agar dilution assay with E. coli (Juhl) and E. coli 6880 as test organisms, compounds of Examples 1 and 2 show a minimum inhibitory concentration (M.I.C.) of >800 ppm. […] The combination of the new peptide with D-cycloserine produces the following M.I.C. test results.

E. coli 6880 = test: two-fold agar dilution assay, M.I.C.; format: cell-based; conditions: for MIC: Escherichia coli, substance alone, agar dilution, read-out: minimum inhibitory concentration (M.I.C.)
Description: as §4

E. coli (Juhl) [2] = test: serial dilution in synthetic medium in test tubes, MIC and F.I.C. index (Table II); format: cell-based; conditions: for MIC: Escherichia coli; for MIC ppm Antibiotic: antibiotic alone
Description: The halogenated peptides alone, the antibiotic alone or mixtures of the halogenated peptides and selected antibiotics are prepared in sterile concentrated aqueous solutions at the desired ratios. Serial dilutions are made to give a range of concentrations of the test substances. Samples of the dilutions are mixed with an appropriate sterile synthetic medium in test tubes. The tubes are then inoculated with an appropriate test organism and incubated at 35°-37° C. for 16-20 hours. Minimum inhibitory concentrations, i.e., that concentration which inhibits visible growth, are read and the fractional inhibitory concentration indices (F.I.C.) are calculated. In all instances, E. coli (Juhl) was used as the infecting microorganism.

E. coli (305-101) = test: mouse protection test, CD50 (Table III); format: in vivo; conditions: mice infected i.p. with E. coli (305-101); dosed subcutaneously; 7 days survival; D-cycloserine alone
Description: as §1, §2, §3

Strep. pyrogenes (C 203) = test: mouse protection test, CD50 (Table III); format: in vivo; conditions: mice infected i.p. with Strep. pyrogenes (C 203); dosed subcutaneously; 7 days survival; D-cycloserine alone
Description: as §1, §2
Strep. pyrogenes (C 203).
as §3

E. coli (Juhl) [3] = test: mouse protection test, CD50 (Table III); format: in vivo; conditions: for F.I.C. Index / CD50 (mg/kg) Combination: E. coli (Juhl) in mice, dipeptide:D-cycloserine 10:1; for CD50 (mg/kg) Combination: amount of peptide only listed, D-cycloserine is 10% of it; for CD50 (mg/kg) Peptide: mice infected i.p. with E. coli (Juhl), dosed subcutaneously, 7 days survival, peptide alone
Description: as §1, §2, §3

[4] = peptide:D-cycloserine ratio 1:1
[5] = peptide:D-cycloserine ratio 1:8
[6] = peptide:D-cycloserine ratio 8:1
[7] = combination with D-cycloserine, ratio Pep/Antib. 1:1
[8] = combination with D-cycloserine, ratio Pep/Antib. 1:8
[9] = combination with cephalothin, ratio Pep/Antib. 1:1
[10] = E. coli (Juhl), 35-37° C., 16-20 hours
[11] = peptide alone, E. coli (Juhl), 35-37° C., 16-20 hours
[12] = combination with carbencillin, ratio Pep/Antib. 1:1
[13] = combination with carbencillin, ratio Pep/Antib. 1:8
[14] = combination with D-cycloserine, ratio Pep/Antib. 8:1

NCC(=O)N[C@H](CCl)C(=O)O [Example 12, Gly-βCl-D-Ala]
F.I.C. Index (S. aureus (Smith)): 0.30
CD50 (mg/kg) Combination (S. aureus (Smith)): 17.4 mg/kg
CD50 (mg/kg) Peptide (S. aureus (Smith)): 155 mg/kg

COC(=O)[C@@H](CF)NC(=O)[C@H](C)N.Cl [Example 15, L-Ala-βF-D-Ala-OMe.HCl]
F.I.C. Index (S. aureus (Smith)): 0.32
CD50 (mg/kg) Combination (S. aureus (Smith)): 5.5 mg/kg
CD50 (mg/kg) Peptide (S. aureus (Smith)): 18 mg/kg

C[C@H](N)C(=O)N[C@H](CCl)C(=O)O [Example 2, L-alanyl-β-chloro-D-alanine]
MIC (E. coli (Juhl) [1]): > 800 µg/mL
M.I.C. of combination, D-cycloserine part (E. coli (Juhl) [1]; [4]): 0.78 ppm
M.I.C. of combination, peptide part (E. coli (Juhl) [1]; [4]): 0.78 ppm
M.I.C. of combination, D-cycloserine part (E. coli (Juhl) [1]; [5]): 1.56 ppm
M.I.C. of combination, peptide part (E. coli (Juhl) [1]; [5]): 0.2 ppm
M.I.C. of combination, D-cycloserine part (E. coli (Juhl) [1]; [6]): 0.78 ppm
M.I.C. of combination, peptide part (E. coli (Juhl) [1]; [6]): 0.62 ppm
MIC (E. coli 6880): > 800 µg/mL
M.I.C. of combination, D-cycloserine part (E. coli 6880; [4]): 0.78 ppm
M.I.C. of combination, peptide part (E. coli 6880; [4]): 0.78 ppm
M.I.C. of combination, D-cycloserine part (E. coli 6880; [5]): 0.78 ppm
M.I.C. of combination, peptide part (E. coli 6880; [5]): 0.1 ppm
M.I.C. of combination, D-cycloserine part (E. coli 6880; [6]): 0.39 ppm
M.I.C. of combination, peptide part (E. coli 6880; [6]): 3.1 ppm
MIC (E. coli (Juhl) [2]; combination with D-cycloserine, ratio Pep/Antib. 1:1, read-out: MIC ppm Pep/Antib., peptide part): 0.78 µg/mL
MIC (E. coli (Juhl) [2]; combination with D-cycloserine, ratio Pep/Antib. 1:8, read-out: MIC ppm Pep/Antib., peptide part): 0.2 µg/mL
MIC (E. coli (Juhl) [2]; combination with cephalothin, ratio Pep/Antib. 1:1, read-out: MIC ppm Pep/Antib., peptide part): 3.1 µg/mL
MIC (E. coli (Juhl) [2]; peptide alone, E. coli (Juhl), 35-37° C., 16-20 hours, read-out: MIC ppm Peptide): > 800 µg/mL
F.I.C. Index (E. coli (Juhl) [2]; [7]): 0.06
MIC ppm Pep/Antib., antibiotic part (E. coli (Juhl) [2]; [7]): 0.78 ppm
F.I.C. Index (E. coli (Juhl) [2]; [8]): 0.12
MIC ppm Pep/Antib., antibiotic part (E. coli (Juhl) [2]; [8]): 1.56 ppm
F.I.C. Index (E. coli (Juhl) [2]; [9]): 0.50
MIC ppm Pep/Antib., antibiotic part (E. coli (Juhl) [2]; [9]): 3.1 ppm
F.I.C. Index (S. aureus (Smith)): 0.34
CD50 (mg/kg) Combination (S. aureus (Smith)): 35 mg/kg
CD50 (mg/kg) Peptide (S. aureus (Smith)): 170 mg/kg

CC1(C)S[C@@H]2[C@H](NC(=O)C(C(=O)O)c3ccccc3)C(=O)N2[C@H]1C(=O)O (some centres unmarked) [carbencillin, reference compound]
MIC ppm Antibiotic (E. coli (Juhl) [2]; [10]): 6.2 ppm

NCCCC[C@H](N)C(=O)N[C@H](CF)C(=O)O [Example 6, L-Lys-βF-D-Ala]
F.I.C. Index (S. aureus (Smith)): 0.08 and 0.13
CD50 (mg/kg) Combination (S. aureus (Smith)): 6.8 mg/kg and 4.0 mg/kg

N[C@@H](Cc1ccccc1)C(=O)N[C@H](CF)C(=O)O [Example 5, L-Phe-βF-D-Ala]
F.I.C. Index (S. aureus (Smith)): 0.99
CD50 (mg/kg) Combination (S. aureus (Smith)): 13.6 mg/kg
CD50 (mg/kg) Peptide (S. aureus (Smith)): 14.4 mg/kg

CC(=O)OCC1=C(C(=O)O)N2C(=O)[C@@H](NC(=O)Cc3cccs3)[C@H]2SC1 [cephalothin, reference compound]
MIC ppm Antibiotic (E. coli (Juhl) [2]; [10]): 6.2 ppm

N[C@@H]1CON=C1O [D-cycloserine, reference compound]
MIC (E. coli (Juhl) [1]): 12.5 µg/mL
MIC (E. coli 6880): 6.2 µg/mL
CD50 (mg/kg) Cycloserine (E. coli (305-101)): 63 mg/kg
CD50 (mg/kg) Cycloserine (Strep. pyrogenes (C 203)): > 100 mg/kg

N[C@@H](CCC(=O)O)C(=O)N[C@H](CF)C(=O)O [Example 9, L-Glu-βF-D-Ala]
F.I.C. Index (E. coli (Juhl) [2]; [8]): 0.50
MIC ppm Pep/Antib., antibiotic part (E. coli (Juhl) [2]; [8]): 3.1 ppm
MIC ppm Pep/Antib., peptide part (E. coli (Juhl) [2]; [8]): 0.39 ppm
MIC ppm Peptide (E. coli (Juhl) [2]; [11]): > 800 ppm
F.I.C. Index (E. coli (Juhl) [3]): 0.96
CD50 (mg/kg) Combination (E. coli (Juhl) [3]): 72 mg/kg
CD50 (mg/kg) Peptide (E. coli (Juhl) [3]): 81 mg/kg
F.I.C. Index (S. aureus (Smith)): 0.30
CD50 (mg/kg) Combination (S. aureus (Smith)): 7.6 mg/kg
CD50 (mg/kg) Peptide (S. aureus (Smith)): 28.5 mg/kg

O=C(N[C@H](CF)C(=O)O)[C@@H]1CCCN1 [Example 7, L-Pro-βF-D-Ala]
F.I.C. Index (S. aureus (Smith)): 0.35
CD50 (mg/kg) Combination (S. aureus (Smith)): 3.7 mg/kg
CD50 (mg/kg) Peptide (S. aureus (Smith)): 12.2 mg/kg

CC(C)C[C@H](N)C(=O)N[C@H](CF)C(=O)O [Example 4, L-Leu-βF-D-Ala]
F.I.C. Index (E. coli (Juhl) [2]; [7]): 0.008
MIC ppm Pep/Antib., antibiotic part (E. coli (Juhl) [2]; [7]): 0.1 ppm
MIC ppm Pep/Antib., peptide part (E. coli (Juhl) [2]; [7]): 0.1 ppm
F.I.C. Index (E. coli (Juhl) [2]; [8]): 0.06
MIC ppm Pep/Antib., antibiotic part (E. coli (Juhl) [2]; [8]): 0.78 ppm
MIC ppm Pep/Antib., peptide part (E. coli (Juhl) [2]; [8]): 0.1 ppm
F.I.C. Index (E. coli (Juhl) [2]; [12]): 0.25
MIC ppm Pep/Antib., antibiotic part (E. coli (Juhl) [2]; [12]): 1.56 ppm
MIC ppm Pep/Antib., peptide part (E. coli (Juhl) [2]; [12]): 1.56 ppm
F.I.C. Index (E. coli (Juhl) [2]; [13]): 2.0
MIC ppm Pep/Antib., antibiotic part (E. coli (Juhl) [2]; [13]): 12.5 ppm
MIC ppm Pep/Antib., peptide part (E. coli (Juhl) [2]; [13]): 1.56 ppm
MIC ppm Peptide (E. coli (Juhl) [2]; [11]): > 200 ppm and > 100 ppm
F.I.C. Index (E. coli (Juhl) [3]): 0.41
CD50 (mg/kg) Combination (E. coli (Juhl) [3]): 10.1 mg/kg
CD50 (mg/kg) Peptide (E. coli (Juhl) [3]): 25.9 mg/kg
F.I.C. Index (S. aureus (Smith)): 0.25
CD50 (mg/kg) Combination (S. aureus (Smith)): 1.6 mg/kg
CD50 (mg/kg) Peptide (S. aureus (Smith)): 7.4 mg/kg

NCC(=O)N[C@H](CF)C(=O)O [Example 10, Gly-βF-D-Ala]
F.I.C. Index (S. aureus (Smith)): 0.27
CD50 (mg/kg) Combination (S. aureus (Smith)): 4.7 mg/kg
CD50 (mg/kg) Peptide (S. aureus (Smith)): 19 mg/kg

CCCCCCC(N)C(=O)N[C@H](CF)C(=O)O (stereo partly drawn) [Example 20, D,L-α-amino-octanoyl-βF-D-Ala]
F.I.C. Index (S. aureus (Smith)): 0.10
CD50 (mg/kg) Combination (S. aureus (Smith)): 8.6 mg/kg
CD50 (mg/kg) Peptide (S. aureus (Smith)): 75.9 mg/kg

CNCC(=O)N[C@H](CF)C(=O)O [Example 11, Sar-βF-D-Ala]
F.I.C. Index (S. aureus (Smith)): 0.24
CD50 (mg/kg) Combination (S. aureus (Smith)): 6.2 mg/kg
CD50 (mg/kg) Peptide (S. aureus (Smith)): 29 mg/kg

CC(C)[C@H](N)C(=O)N[C@H](CF)C(=O)O [Example 3, L-Val-βF-D-Ala]
F.I.C. Index (S. aureus (Smith)): 0.15
CD50 (mg/kg) Combination (S. aureus (Smith)): 1.0 mg/kg
CD50 (mg/kg) Peptide (S. aureus (Smith)): 10 mg/kg

N[C@@H](CO)C(=O)N[C@H](CF)C(=O)O [Example 8, L-Ser-βF-D-Ala]
F.I.C. Index (E. coli (Juhl) [2]; [7]): 0.008
MIC ppm Pep/Antib., antibiotic part (E. coli (Juhl) [2]; [7]): 0.1 ppm
MIC ppm Pep/Antib., peptide part (E. coli (Juhl) [2]; [7]): 0.1 ppm
F.I.C. Index (E. coli (Juhl) [2]; [8]): 0.03
MIC ppm Pep/Antib., antibiotic part (E. coli (Juhl) [2]; [8]): 0.39 ppm
MIC ppm Pep/Antib., peptide part (E. coli (Juhl) [2]; [8]): 0.05 ppm
F.I.C. Index (E. coli (Juhl) [2]; [14]): 0.004
MIC ppm Pep/Antib., antibiotic part (E. coli (Juhl) [2]; [14]): 0.05 ppm
MIC ppm Pep/Antib., peptide part (E. coli (Juhl) [2]; [14]): 0.39 ppm
MIC ppm Peptide (E. coli (Juhl) [2]; [11]): > 800 ppm
F.I.C. Index (S. aureus (Smith)): 0.13
CD50 (mg/kg) Combination (S. aureus (Smith)): 5.2 mg/kg
CD50 (mg/kg) Peptide (S. aureus (Smith)): 48 mg/kg

CCC(N)C(=O)N[C@H](CF)C(=O)O (stereo partly drawn) [Example 17, L-αNH2 -But-βF-D-Ala]
F.I.C. Index (S. aureus (Smith)): 0.20
CD50 (mg/kg) Combination (S. aureus (Smith)): 2.6 mg/kg
CD50 (mg/kg) Peptide (S. aureus (Smith)): 13.7 mg/kg
